According to PubChem BioAssay AID2060510 (Molecular Pharmacology Branch, DTP, NCI, 2025):

System: 439559-082-T-J2-PDC spheroids viability
Assay: Anticancer human tumor 439559-082-T-J2-PDC patient-derived colon adenocarcinoma cell line growth inhibition [GQUAD]
Settings: for IC50: curve of first compound; for viability, T/C: stronger effect = lower value
Excerpt: DNA G-quadruplex Stabilizer Agents in Combinations in Complex Spheroids
A high-throughput screen of multi-cell type tumor spheroids was designed to identify active combinations of DNA G-quadruplex stabilizer agents and targeted small molecules. Complex spheroids include a stromal component modeled by human endothelial cells (HUVEC) and fibroblasts modeled by human mesenchymal stem cells (MSCs). The concentration ranges selected for each drug and investigational agent were based upon clinically achievable concentrations if the clinical Cmax of the agent was known.
Compounds. The drugs and investigational agents: pidnarulex (CX-5461; NSC782164), APTO-253 (NSC789042), BRACO-19 (NSC847499), peposertib (NSC802822), ceralasertib (NSC780249), elimusertib (NSC800525), camonsertib (NSC841442), AZD-1390 (NSC803789), olaparib (NSC753686), talazoparib (NSC767125), ART-558 (NSC835418), sotorasib (NSC818433), MRTX-1133 (NSC836407), SN-38 (NSC673596), topotecan (NSC609699), etoposide (NSC141540), doxorubicin (NSC123127), gemcitabine (NSC613327), 5-fluorouracil (NSC19893), paclitaxel (NSC125973), vemurafenib (NSC761431), panobinostat (NSC761190), R-306465 (JNJ-16241199; NSC773264), adavosertib (NSC754352), TP-3654 (NSC805149), carboplatin (NSC241240), KSQ-4279 (NSC840948), and staurosporine (NSC755774) were obtained from the National Cancer Institute (NCI) Developmental Therapeutics Program Chemical Repository (34). The FDA-approved anticancer drug set is available from the NCI Developmental Therapeutics Program. […] The stock solutions were prepared in dimethyl sulfoxide (DMSO, Sigma-Aldrich, St. Louis, MO, cat. D2650) at 800-fold the tested concentration and stored at -70 degrees C prior to their use. All drugs and investigational agents were tested over a range starting from a high concentration at or near the clinical Cmax and decreasing in half-log increments. If the clinical Cmax for an agent had not been determined, the highest concentration tested was 10 microM.
2.3 Cell Culture. All cells were maintained in an incubator at 37 degrees C and 5% CO2 with 95% humidity. The PDC lines were cultured according to standard operating procedures established by the NCI PDMR. All PDCs were thawed and cultured in Matrigel-coated flasks prepared with a working solution of 1X Ham's F-12 nutrient mix, without supplementation (Invitrogen, cat. 11765054), 100 U/mL penicillin-streptomycin (Invitrogen, cat. 15140122), and 2.5% Matrigel (Corning Inc., cat. 354248) for the first three passages. The 857933-349-R-J2-PDC line was cultured in 6C/Colon 1B media, which includes advanced DMEM/F-12 (Thermo Fisher Scientific, cat. 12634028), 10 mM HEPES (Thermo Fisher Scientific, cat. 15630080), 1X GlutaMAX supplement (Thermo Fisher Scientific, cat. 35050061), 0.1 mg/mL primocin (InvivoGen, cat. ant-pm-2), 10% defined fetal bovine serum, heat inactivated (HyClone Laboratories Inc., cat. SH30070.03HI), 50% L-WRN conditioned media (ATCC, cat. CRL-3276), 1.25 mM N-Acetyl-L-cysteine (Sigma-Aldrich, cat. A9165), 10 mM nicotinamide (Sigma-Aldrich, cat. N0636), 1X B-27 supplement (Thermo Fisher Scientific, cat. 17504044), 1X N-2 supplement (Thermo Fisher Scientific, cat. 17502048), 10 microM Y-27632 dihydrochloride (Tocris Bioscience, cat. 1254), and 50 ng/mL human EGF recombinant protein (Thermo Fisher Scientific, cat. PHG0311). The 485176-168-R4-J1-PDC line was cultured in Panc media, which includes all 6C/Colon 1B media components plus 100 ng/mL human FGF-10 (Thermo Fisher Scientific, cat. 100-26), 500 nM SB-431542 (Selleckchem, cat. S1067), and gastrin (Tocris, cat. 3006).
[…]
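Also: spheroids exposed to the agents for 7 days before readout.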
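For viability, T/C in this document: percent of luminescence signal in DMSO vehicle wells taken as 100% viability.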

CC1COCCN1c1cc(-c2ccnn2C)c2ccnc(-c3ccn[nH]3)c2n1 (configuration not stated) + CN(C)c1ccc(Nc2c3ccc(NC(=O)CCN4CCCC4)cc3nc3cc(NC(=O)CCN4CCCC4)ccc23)cc1
IC50 (second compound 0.0316 µM): 237 nM | IC50 (second compound 0.1 µM): 261 nM | IC50 (second compound 0.316 µM): 224 nM | IC50 (second compound 1 µM): 248 nM | IC50 (second compound 3.16 µM): 221 nM | IC50 (second compound 10 µM): 229 nM | viability, T/C (second compound 0.0316 µM, first compound 0.0316 µM): 97.9% | viability, T/C (second compound 0.0316 µM, first compound 0.1 µM): 72.7% | viability, T/C (second compound 0.0316 µM, first compound 0.316 µM): 41.9% | viability, T/C (second compound 0.0316 µM, first compound 1 µM): 34.6% | viability, T/C (second compound 0.0316 µM, first compound 3.16 µM): 35.3% | viability, T/C (second compound 0.0316 µM, first compound 10 µM): 28.8% | viability, T/C (second compound 0.1 µM, first compound 0.0316 µM): 104% | viability, T/C (second compound 0.1 µM, first compound 0.1 µM): 74.4% | viability, T/C (second compound 0.1 µM, first compound 0.316 µM): 43.1% | viability, T/C (second compound 0.1 µM, first compound 1 µM): 32.9% | viability, T/C (second compound 0.1 µM, first compound 3.16 µM): 30.9% | viability, T/C (second compound 0.1 µM, first compound 10 µM): 21.5% | viability, T/C (second compound 0.316 µM, first compound 0.0316 µM): 97.1% | viability, T/C (second compound 0.316 µM, first compound 0.1 µM): 80.7% | viability, T/C (second compound 0.316 µM, first compound 0.316 µM): 36.7% | viability, T/C (second compound 0.316 µM, first compound 1 µM): 30.3% | viability, T/C (second compound 0.316 µM, first compound 3.16 µM): 30.2% | viability, T/C (second compound 0.316 µM, first compound 10 µM): 24.2% | viability, T/C (second compound 1 µM, first compound 0.0316 µM): 89.6% | viability, T/C (second compound 1 µM, first compound 0.1 µM): 89.1% | viability, T/C (second compound 1 µM, first compound 0.316 µM): 39.5% | viability, T/C (second compound 1 µM, first compound 1 µM): 34.3% | viability, T/C (second compound 1 µM, first compound 3.16 µM): 32.6% | viability, T/C (second compound 1 µM, first compound 10 µM): 26.4% | viability, T/C (second compound 3.16 µM, first compound 0.0316 µM): 90% | viability, T/C (second compound 3.16 µM, first compound 0.1 µM): 75.1% | viability, T/C (second compound 3.16 µM, first compound 0.316 µM): 38.9% | viability, T/C (second compound 3.16 µM, first compound 1 µM): 28.6% | viability, T/C (second compound 3.16 µM, first compound 3.16 µM): 30.1% | viability, T/C (second compound 3.16 µM, first compound 10 µM): 28.8% | viability, T/C (second compound 10 µM, first compound 0.0316 µM): 92.9% | viability, T/C (second compound 10 µM, first compound 0.1 µM): 75.8% | viability, T/C (second compound 10 µM, first compound 0.316 µM): 40.4% | viability, T/C (second compound 10 µM, first compound 1 µM): 27.8% | viability, T/C (second compound 10 µM, first compound 3.16 µM): 37.1% | viability, T/C (second compound 10 µM, first compound 10 µM): 25.1%
